Measurements as given in patent US20130116251A1, “Novel HSP90 Inhibitor” (Nippon Kayaku Kabushiki Kaisha, priority 2005, published 2013).
Where a name gives a salt, the structure may show the parent alone. Read-outs that look alike come from different tables or passages of the source.

Tests used:
[1] = test system: Human breast cancer cells (MCF7); assay: Antiproliferative activity on MCF7 cells (methylene blue method); format: cell-based; conditions: MCF7 cells, 72 hours treatment, 660 nm absorbance after methylene blue staining, read-out: Antiproliferative activity IC50
Experimental: Human breast cancer cells (MCF7) were treated with samples of various concentrations of known HSP90 inhibitors (that is, geldanamycin, herbimycin, radicicol and PU3) and the compounds of the present invention for 72 hours to confirm the effect of the triazole derivatives of the present invention on the cell growth. The cell ratio after the drug treatment was evaluated by measuring 660 nm absorbance by a microplate reader (BioRad) after staining the cells with the methylene blue method.
Cells were distributed to wells of 96 well plates at 2000 cells per well and treated with drugs 24 hours later. Further, the medium was removed 72 hours later and the cells were fixed by adding 50 μl of methanol and standing at room temperature for 2 minutes. After removing methanol, 100 μl of a staining solution was added and stained for 30 minutes. After washing 3 times with 200 μl of distilled water, 3% HCl solution was added, and the 660 nm absorbance of methylene blue was measured by a microplate reader (BioRad).
Next, the antiproliferative activity rate (%) was obtained by the formula (2) below.
Antiproliferative activity rate(%)=((B−A)/B)×100 Formula (2)
wherein B is 660 nm absorbance of the sample when the compound of the present invention is not added, and A is 660 nm absorbance of the sample when the compound of the present invention is added.
From the concentration of the triazole derivative of the present invention and the antiproliferative activity rate, the concentration was obtained using the above formula, at which the cell growth was suppressed by 50% by comparing with the control, and termed an IC50 value.
The antiproliferative activity rate (%) was obtained for SH-b04, SH-b05 and SH-b06 described above by a similar manner to that of the triazole derivatives of the present invention.

rHSP90 = assay: HSP90 binding assay (BIACORE SPR; inhibition of binding between rHSP90 and fixed herbimycin A); conditions: concentration inhibiting binding between rHSP90 (50 μg/mL) and fixed herbimycin A by 50%, BIACORE-X SPR; read-out: HSP90 inhibitory activity IC50
Text: The HSP90 binding assay system is a system for detecting the change of mass as SPR signal caused by the binding between herbimycin A fixed on a sensor chip and rHSP90 by BIACORE-X, in which 17-(6-amino hexylamino)herbimycin A is fixed through a carboxyl group on the surface of the sensor chip (CM5, BIACORE) on which carboxymethyldextran has been introduced. The method was according to the protocol of BIACORE. In addition, 17-(6-aminohexylamino)herbimycin A was synthesizes as described below.
rHSP90 (Stressgen Biotechnologies Corp., Victoria, BC Canada) at 50 μg/mL was exposed for 10 seconds to the surface of the sensor chip on which herbimycin A was fixed and the SPR signal (numerical value of interaction) was detected.
After mixing rHSP90 protein (5×10^−7M (50 μg/mL)) with the triazole derivative of the present invention, the mixture was exposed for 10 seconds to the surface of the sensor chip on which herbimycin A was fixed, and the SPR signal was measured by BIACORE-X.
Next, using following formula (1), the inhibitory activity (binding inhibition rate (%)) of the compound of the present invention to the binding between rHSP90 and fixed herbimycin A was obtained.
binding inhibition rate(%)=((b−s)/b)×100 Formula (1)
wherein b is the SPR signal when the compound of the present invention is not added to the sample: s is the SPR signal when the compound of the present invention is added to the sample.

IC50 ([1]; Homo sapiens, MCF7, 72 h)	IC50 (rHSP90)	IC50 [1]	SMILES
0.04 µM	0.25 µM		CC(C)c1cc(-c2n[nH]c(=S)n2-c2ccccc2)c(O)cc1O [SH-a15]
0.24 µM	0.14 µM		CC(C)c1cc(-c2n[nH]c(=S)n2-c2cccnc2)c(O)cc1O [SH-a16]
0.4 µM	0.22 µM		CC(C)c1cc(-c2n[nH]c(=S)n2C(C)C)c(O)cc1O [SH-a21, 5-(2,4-dihydroxy-5-isopropyl-phenyl)-4-isopropyl-2,4-dihydro-[1,2,4]-triazol-3-thione]
0.45 µM	0.27 µM		CC(C)Cn1c(-c2cc(C(C)C)c(O)cc2O)n[nH]c1=S [SH-a22, 5-(2,4-dihydroxy-5-isopropyl-phenyl)-4-isobutyl-2,4-dihydro-[1,2,4]triazol-3-thione]
0.33 µM	0.42 µM		CC(C)c1cc(-c2n[nH]c(=S)n2C2CCCCC2)c(O)cc1O [SH-a23, 5-(2,4-dihydroxy-5-isopropyl-phenyl)-4-cyclohexyl-2,4-dihydro-[1,2,4]triazol-3-thione]
0.89 µM	1 µM		CC(C)c1cc(-c2n[nH]c(=S)n2C2CCN(Cc3ccccc3)CC2)c(O)cc1O [SH-a25•TFA]
7.2 µM	0.43 µM		CC(C)c1cc(-c2n[nH]c(=S)n2CCc2cccnc2)c(O)cc1O [SH-a28, 5-(2,4-dihydroxy-5-isopropylphenyl)-4-(2-pyridin-3-ylethyl)-2,4-dihydro-[1,2,4]triazol-4-thione]
0.55 µM	0.31 µM		CC(C)c1cc(-c2n[nH]c(=S)n2CC2CCCO2)c(O)cc1O (stereo not shown) [SH-a31, 5-(2,4-dihydroxy-5-isopropylphenyl)-4-(tetrahydrofuran-2-ylmethyl)-2,4-dihydro-[1,2,4]triazol-3-thione]
0.55 µM	0.24 µM		COCCn1c(-c2cc(C(C)C)c(O)cc2O)n[nH]c1=S [SH-a32, 5-(2,4-dihydroxy-5-isopropyl-phenyl)-4-(2-methoxy-ethyl)-2,4-dihydro-[1,2,4]triazol-3-thione]
5.7 µM	0.17 µM		Oc1ccc(-c2nnc(S)n2-c2ccccc2)c(O)c1 [SH-b04, reference compound]
9 µM	0.2 µM		Cc1ccccc1-n1c(S)nnc1-c1ccc(O)cc1O [SH-b05, reference compound]
77 µM	0.69 µM		COc1ccc(OC)c(-n2c(S)nnc2-c2ccc(O)cc2O)c1 [SH-b06, reference compound]
0.48 µM	0.25 µM		CC#CCc1cc(-c2n[nH]c(=S)n2-c2ccc(CN3CCOCC3)cc2)c(O)cc1O [SH-c02-TF, 4-(but-2-ynyl)-6-{5-mercapto-4-[4-morpholin-4-ylmethyl]-phenyl}-4H-[1,2,4]trioazol-3-yl]-benzene-1,3-diol trifluoroacetate]
3 µM	0.56 µM		COc1ccc(-n2c(-c3cc(C(C)(C)C)c(O)cc3O)n[nH]c2=S)cc1 [SH-f08]
0.53 µM	0.47 µM		CSc1nnc(-c2cc(C(C)C)c(O)cc2O)n1-c1ccc(CN2CCOCC2)cc1 [SMe-a02-TF, 4-isopropyl-6-{5-methylsulfanyl-4-[4-(morpholin-4-ylmethyl)-phenyl]-4H-[1,2,4]triazol-3-yl}-benzene-1,3-diol trifluoroacetate]
1.8 µM	0.74 µM		COc1ccc(-n2c(SCCN(C)C)nnc2-c2cc(C(C)C)c(O)cc2O)cc1 [SR2-a08, 4-[5-(3-dimethylamino-ethylsulfanyl)-4-(4-methoxy-phenyl)-4H-[1,2,4]triazol-3-yl]-6-isopropyl-benzene-1,3-diol]

Continued, compound first:

SMILES	IC50 ([1]; Homo sapiens, MCF7, 72 h)	IC50 (rHSP90)	IC50 [1]
CC(C)c1cc(-c2nnc(S(C)(=O)=O)n2-c2ccc(C[N+]3([O-])CCOCC3)cc2)c(O)cc1O [SFN-a07, 4-isopropyl-6-{5-methanesulfonyl-4-[4-(morpholin-4-oxid-4-ylmethyl)-phenyl]-4H-[1,2,4]triazol-3-yl}benzene-1,3-diol]	24 µM	0.32 µM	
CC(C)c1cc(-c2nnc(S(C)(=O)=O)n2C(C)C)c(O)cc1O [SFN-a21, 4-isopropyl-6-(4-isopropyl-5-methanesulfonyl-4H-[1,2,4]triazol-3-yl)-benzene-1,3-diol]	16 µM	0.23 µM	
CC(C)c1cc(-c2nnc(S(C)(=O)=O)n2CCCN2CCOCC2)c(O)cc1O [SFN-a27, 4-isopropyl-6-[5-methanesulfonyl-4-[3-(molpholin-4-yl)-propyl]-4H-[1,2,4]triazol-3-yl]-benzene-1,3-diol]	> 20 µM	1.6 µM	
CC(C)c1cc(-c2nnc(S(C)(=O)=O)n2CCc2ccc[n+]([O-])c2)c(O)cc1O [SFN-a29, 5-(2,4-dihydroxy-5-isopropylphenyl)-4-[2-(1-oxopyridin-3-yl)ethyl]-3-methanesulfonyl-4H-[1,2,4]triazole]	> 20 µM	3.6 µM	
CC(C)c1cc(-c2nnc(S(C)(=O)=O)n2CCCN2CCCC2=O)c(O)cc1O [SFN-a30]	> 20 µM	2.4 µM	
COCCn1c(-c2cc(C(C)C)c(O)cc2O)nnc1S(C)(=O)=O [SFN-a32, 4-isopropyl-6-[5-methanesulfonyl-4-(2-methoxy-ethyl)-4H-[1,2,4]triazol-3-yl]-benzene-1,3-diol]	> 20 µM	1.9 µM	
CC(C)c1cc(-c2nnc(S(C)(=O)=O)n2C(CO)CO)c(O)cc1O [SFN-a33, 4-[4-(2-hydroxy-1-hydroxymethyl-ethyl)-5-methanesulfonyl-4H-[1,2,4]triazol-3-yl]-6-isopropyl-benzene-1,3-diol]	15 µM	1.3 µM	
CC(C)c1cc(-c2nnc([S+](C)[O-])n2-c2ccc(C[N+]3([O-])CCOCC3)cc2)c(O)cc1O (stereo not shown) [SFX-a07-TF, 4-isopropyl-6-{5-methylsulfinyl-4-[4-(morpholin-4-oxid-4-ylmethyl)-phenyl]-4H-[1,2,4]triazol-3-yl}-benzene-1,3-diol trifluoroacetate]	12 µM	0.064 µM	
COc1ccc(-n2c(-c3cc(C(C)C)c(O)cc3O)nnc2[S+](C)[O-])cc1 (stereo not shown) [SFX-a08, 4-isopropyl-6-[5-methylsulfinyl-4-(4-methoxy-phenyl)-4H-[1,2,4]triazol-3-yl]-benzene-1,3-diol]	0.36 µM	0.12 µM	
CC(C)c1cc(-c2n[nH]c(=S)n2-c2ccc(N3CCOCC3)cc2)c(O)cc1O [SH-a01, 4-isopropyl-6-{5-mercapto-4-[4-(morpholin-4-yl)-phenyl]-4H-[1,2,4]triazol-3-yl}-benzene-1,3-diol]		0.14 µM	0.014 µM
CC(C)c1cc(-c2n[nH]c(=S)n2-c2ccc(N3CCOCC3)cc2)c(O)cc1O [SH-a01-TF, 4-isopropyl-6-{5-mercapto-4-[4-(morpholin-4-yl)-phenyl]-4H-[1,2,4]triazol-3-yl}-benzene-1,3-diol]	0.02 µM	0.19 µM	
CC(C)c1cc(-c2n[nH]c(=S)n2-c2ccc(Br)cc2)c(O)cc1O [SH-a03, 4-[4-(4-bromo-phenyl)-5-mercapto-4H-[1,2,4]triazol-3-yl]-6-isopropyl-benzene-1,3-diol]	0.15 µM	0.15 µM	
COc1ccc(-n2c(-c3cc(C(C)C)c(O)cc3O)n[nH]c2=S)cc1 [SH-a08, 5-(2,4-dihydroxy-5-isopropyl-phenyl)-4-(4-methoxy-phenyl)-2,4-dihydro-[1,2,4]-triazol-3-thione]	0.057 µM	0.085 µM	
